Laboratory results as given in patent US9686993B2 (priority 2005, dated 2017).
Read-outs that look alike come from different tables or passages of the source.

Assays:
[1] = tested on: wheat scab (Fusarium graminearum, Fusarium culmorum, or Fusarium avenaceum); type: in vivo; settings: for Medicinal Benefit Control Value: relative to no treatment; for Medicinal Benefit (number of infected berries in 1000 berries): sprayed once at GSs 65 to 71, no treatment 203
[2] = tested on: Fusarium graminearum, Fusarium culmorum, or Fusarium avenaceum (mycotoxin production, DON); settings: in vivo

`COC(=O)NC(=S)Nc1ccccc1NC(=S)NC(=O)OC` [Cercobin M, thiophanate-methyl] was tested, and the “Medicinal Benefit Control Value” ([1]; 250 g ai/ha) was 6.4%, the “Medicinal Benefit (number of infected berries in 1000 berries)” value ([1]; 250 g ai/ha) was 190 and the “medicinal benefit (number of infected berries in 1000 berries), result in words” value ([1]; 250 to 500 g ai/ha (combination 500 + 120 g ai/ha), versus no treatment) was “almost no difference”. The “Medicinal Benefit Control Value” ([1]; 375 g ai/ha) was 7.4%, the “Medicinal Benefit (number of infected berries in 1000 berries)” value ([1]; 375 g ai/ha) was 218 and the “Medicinal Benefit Control Value” ([1]; 500 g ai/ha) was 11.3%. The “Medicinal Benefit (number of infected berries in 1000 berries)” value ([1]; 500 g ai/ha) was 180 and the “amount of mycotoxin production (DON concentration), result in words” value [2] was “inhibited in a dose-dependent manner”.
